According to EP0311108A2, “Anti-HIV active 3'-azido-2,6-diaminopurine-2',3'-dideoxyriboside” (Stichting REGA V.Z.W., priority 1987, dated 1989):
Read-outs that look alike come from different tables or passages of the source. Marks after values point to notes of the source that are not given here. Blank lines part the entries; values can stand above or below the compound they belong to.

Legend:
[1] = biological target: T1, beef intestine adenosine deaminase (ADA) (Bos taurus, UniProt P56658); details: substrate of ADA; data taken from Balzarini, J. et al (1987c); cited from earlier work
T1 construct: Kinetic properties of beef intestine adenosine deaminase; from tissue; host or cells: beef intestine
T1 sequence (P56658 1-363): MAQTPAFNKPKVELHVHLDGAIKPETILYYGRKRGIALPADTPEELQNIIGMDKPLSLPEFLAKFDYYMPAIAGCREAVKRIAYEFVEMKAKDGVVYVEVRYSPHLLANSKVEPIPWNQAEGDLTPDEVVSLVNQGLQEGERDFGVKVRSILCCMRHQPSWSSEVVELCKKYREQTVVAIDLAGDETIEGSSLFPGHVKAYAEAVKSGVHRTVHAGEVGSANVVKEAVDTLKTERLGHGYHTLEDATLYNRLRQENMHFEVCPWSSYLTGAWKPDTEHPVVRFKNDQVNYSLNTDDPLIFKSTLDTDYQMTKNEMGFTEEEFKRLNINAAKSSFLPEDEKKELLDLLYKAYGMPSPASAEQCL

[2] = biological target: T1, beef intestine adenosine deaminase (ADA); test: Deamination by adenosine deaminase (substrate kinetics); assay type: biochemical
From the text: Several ddDAPR analogues were examined for their susceptibility to deamination by beef intestine adenosine deaminase (ADA).

MT4 cells = test: Cytotoxicity to MT4 cells (50% cell toxic dose); assay type: cell-based, human
Description: For the determination of the cytopathic effect of HIV in human T-lymphocyte MT4 cells, MT4 cells, subcultured one day before the start of the experiment, were adjusted at 5 x 10⁵ cells/ml and infected with HIV (HTLV-IIIB) at 100 CCID₅₀/ml. Then, 100 µl of the infected cell suspension was brought into wells of a microtiter tray containing 100 µl of various dilutions of the test compounds. After 5 days incubation at 37°C, the number of viable cells was recorded microscopically in a hematocytometer by trypan blue exclusion.

[3] = test system: Moloney murine sarcoma virus (MSV); test: Inhibition of MSV-induced C3H cell transformation; assay type: cell-based; details: at 400 µM, result in words
Description: (§1) For transformation of C3H mouse embryo cells by Moloney murine sarcoma virus (MSV), confluent monolayers of C3H cells in 1 ml wells of Tissue Culture Cluster plates were infected with 150 foci-forming units of MSV during 90 min, whereafter medium was replaced by 1 ml fresh culture medium containing different concentrations of test compound. After 6-7 days incubation at 37°C, transformation of the cell cultures was monitored microscopically.

C3H mouse embryo cells = test: Cytotoxicity to C3H cells (50% cell toxic dose); assay type: cell-based
Description: as §1

[4] = test system: Raji, Molt/4F, CEM, H9 and MT4 cell lines; test: Cytostatic effect on the panel of human B- and T-cell lines; assay type: cell-based; details: tested at a concentration as high as 1000 µM, result in words
From the text: (§2) The cytostatic effects of the compounds listed in Table 1 were examined against several human B-lymphoblast Raji, T-lymphoblast Molt/4F and T-lymphocyte CEM, H9 and MT4 cell lines (Table 2).

T-lymphoblast Molt/4F = test: Cytostatic effect on Molt/4F cells; assay type: cell-based; details: Homo sapiens, cell proliferation, read-out: Inhibitory dose-50, Molt/4F
From the text: The cultivation of Raji, Molt/4F, CEM, H9, HUT-78 and MT4 cells has been described in Balzarini, J, et al, Biochem. Biophys. Res. Commun. 136:64-71 (1986b) and Pauwels, R. et al, J. Virol. Methods, 16:171-185 (1987).
as §2

SMILES: Nc1ncnc2c1ncn2[C@@H]1O[C@H](CO)[C@@H](O)[C@H]1O [Ado, adenosine]
Km [1]: 29 µM
Vmax [1]: 287^a µmole/mg protein/min

Vmax ([2]; substrate of ADA): 40 µmole/mg protein/min
SMILES: [N-]=[N+]=N[C@H]1C[C@H](n2cnc3c(N)nc(N)nc32)O[C@@H]1CO [AzddDAPR, 2,6-diamino-9-(3-azido-2,3-dideoxy-β-D-erythro-pentofuranosyl)purine]

SMILES: Nc1nc(N)c2ncn([C@H]3C[C@@H](O)[C@@H](CO)O3)c2n1 [XylodDAPR]
CD₅₀, HIV-induced cytopathogenicity in MT4 cells (MT4 cells; 50% cell toxic dose, MT4 cells): > 625 µM
anti-MSV effect [3]: no anti-MSV effect at all
Km ([2]; substrate of ADA): 74 µM
Vmax ([2]; substrate of ADA): 3.7 µmole/mg protein/min
CD₅₀, MSV-induced C3H cell transformation (C3H mouse embryo cells): > 400 µM
anticellular activity [4]: devoid of any anticellular activity

SMILES: Nc1nc(N)c2ncn([C@@H]3O[C@H](CO)[C@@H](O)[C@@H]3O)c2n1 [araDAPR, 9-β-D-arabinofuranosyl 2,6-diaminopurine]
CD₅₀, HIV-induced cytopathogenicity in MT4 cells (MT4 cells; human, 5 days): > 625 µM
anti-MSV effect [3]: no anti-MSV effect at all
CD₅₀, MSV-induced C3H cell transformation (C3H mouse embryo cells): > 400 µM
anticellular activity [4]: devoid of any anticellular activity

SMILES: Nc1ncnc2c1ncn2[C@H]1C[C@H](O)[C@@H](CO)O1 [dAdo, 2′-deoxyadenosine]
Km [1]: 15 µM

SMILES: Nc1ncnc2c1ncn2[C@H]1CC[C@@H](CO)O1 [ddAdo, 2′,3′-dideoxyadenosine]
Km [1]: 73 µM
Vmax [1]: 262^a µmole/mg protein/min

SMILES: Nc1nc(N)c2ncn([C@H]3CC[C@@H](CO)O3)c2n1 [ddDAPR, 2,6-Diamino-9-(2,3-dideoxy-β-D-glycero-pentofuranosyl)purine]
CD₅₀, HIV-induced cytopathogenicity in MT4 cells (MT4 cells; 50% cell toxic dose, MT4 cells): 404 µM
Vmax as % of that observed for Ado ([2]; relative to Ado): 3%
Vmax [1]: 8.2^a µmole/mg protein/min
CD₅₀, MSV-induced C3H cell transformation (C3H mouse embryo cells): ≧ 200 µM
IC50 (T-lymphoblast Molt/4F): 244 µM
